What follows are molecules tested against T1, BACE1 (Homo sapiens, UniProt P56817) (assay: Cellular Aβ-lowering assay a) (Aβ40 ELISA)). Settings: cellular assay a): HEK293 cells expressing human APP695, Aβ40 in supernatant by ELISA after 18-20 hrs; read-out: BACE1 cell act. Aβ40 IC50.
T1 construct: Human HEK293 cells which are stably transfected with a vector expressing a cDNA of the human APP wt gene (APP695); endogenous in cells; host or cells: HEK293 cells stably transfected with human APP695 (wt)
T1 sequence (P56817 46-501): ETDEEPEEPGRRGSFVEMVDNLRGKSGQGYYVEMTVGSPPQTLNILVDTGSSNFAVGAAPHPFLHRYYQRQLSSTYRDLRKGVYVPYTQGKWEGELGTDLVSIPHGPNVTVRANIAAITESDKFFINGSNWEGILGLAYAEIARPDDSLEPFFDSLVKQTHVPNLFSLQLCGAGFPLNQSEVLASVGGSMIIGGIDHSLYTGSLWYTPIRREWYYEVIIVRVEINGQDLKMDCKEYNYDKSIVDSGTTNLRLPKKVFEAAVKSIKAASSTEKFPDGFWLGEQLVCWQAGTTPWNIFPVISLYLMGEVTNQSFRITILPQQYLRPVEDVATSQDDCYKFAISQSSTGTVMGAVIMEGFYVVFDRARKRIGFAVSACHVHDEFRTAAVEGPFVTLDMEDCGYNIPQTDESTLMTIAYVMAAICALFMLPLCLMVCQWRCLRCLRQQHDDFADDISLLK
Type: cell-based
Protocol: a) Human HEK293 cells which are stably transfected with a vector expressing a cDNA of the human APP wt gene (APP695) were used to assess the potency of the compounds in a cellular assay. The cells were seeded in 96-well microtiter plates in cell culture medium (Iscove, plus 10% (v/v) fetal bovine serum, glutamine, penicillin/streptomycin) to about 80% confluence and the compounds were added at a 10× concentration in 1/10 volume of medium without FCS containing 8% DMSO (final concentration of DMSO was kept at 0.8% v/v). After 18-20 hrs incubation at 37° C. and 5% CO2 in a humidified incubator the culture supernatant was harvested for the determination of Aβ40 concentrations. 96 well ELISA plates (e.g., Nunc MaxiSorb) were coated with monoclonal antibody which specifically recognize the C-terminal end of Aβ40 (Brockhaus et al., NeuroReport 9, 1481-1486; 1998). After blocking of non-specific binding sites with e.g. 1% BSA and washing, the culture supernatants were added in suitable dilutions together with a horseradish peroxidase-coupled Aβ detection antibody (e.g., antibody 4G8, Senetek, Maryland Heights, Mo.) and incubated for 5 to 7 hrs. Subsequently the wells of the microtiter plate were washed extensively with Tris-buffered saline containing 0.05% Tween 20 and the assay was developed with tetramethylbenzidine/H2O2 in citric acid buffer. After stopping the reaction with one volume of 1N H2SO4 the reaction was measured in an ELISA reader at 450 nm wavelength. The concentrations of Aβ in the culture supernatants were calculated from a standard curve obtained with known amounts of pure Aβ peptide.
`N#Cc1cccc(-c2ccc3c(c2)[C@@]2(CC(c4ccccc4)O3)N=C(N)COCC2(F)F)c1` (mixture of isomers) [Example 60, 3-((2RS,4R)-3′-amino-6′,6′-difluoro-2-phenyl-6′,7′-dihydro-2′H-spiro[chroman-4,5′-[1,4]oxazepine]-6-yl)benzonitrile] gave an IC50 of 1040 nM. `N#Cc1ccc(C(=O)Nc2ccc3c(c2)[C@@]2(CC(c4ccccc4)O3)N=C(N)COCC2(F)F)nc1` (mixture of isomers) [Example 53, N-((2RS,4R)-3′-Amino-6′,6′-difluoro-2-phenyl-6′,7′-dihydro-2′H-spiro[chroman-4,5′-[1,4]oxazepine]-6-yl)-5-cyanopicolinamide] was tested, and the IC50 was 470 nM. `NC1=N[C@@]2(CCOc3ccc(NC(=O)c4[nH]ncc4Cl)cc32)C(F)(F)CO1` [Example 35] was tested, and the IC50 was 1250 nM. `CC1(C)C[C@@]2(N=C(N)OCC2(F)F)c2cc(NC(=O)c3ccc(C#N)cn3)ccc2O1` [Example 41, (R)—N-(2′-Amino-5′,5′-difluoro-2,2-dimethyl-5′,6′-dihydrospiro[chroman-4,4′-[1,3]oxazine]-6-yl)-5-cyanopicolinamide] showed an IC50 of 230 nM. With `NC1=N[C@@]2(CCc3ccc(-c4ccnc(Cl)c4)cc32)C(F)(F)CO1` [Example 6, (R)-6-(2-Chloropyridin-4-yl)-5′,5′-difluoro-2,3,5′,6′-tetrahydrospiro[indene-1,4′-[1,3]oxazin]-2′-amine] the IC50 was 1360 nM. In the case of `CC1(C)C[C@@]2(N=C(N)OCC2(F)F)c2cc(-c3cncc(Cl)c3)ccc2O1` [Example 28, (R)-6-(5-chloropyridin-3-yl)-5′,5′-difluoro-2,2-dimethyl-5′,6′-dihydrospiro[chroman-4,4′-[1,3]oxazin]-2′-amine], the IC50 is reported as 2530 nM. Work on `N#Cc1ccc(C(=O)Nc2ccc3c(c2)[C@@]2(CCC3)N=C(N)COCC2(F)F)nc1` [Example 47, (R)—N-(3′-Amino-6′,6′-difluoro-3,4,6′,7′-tetrahydro-2H,2′H-spiro[naphthalene-1,5′-[1,4]oxazepine]-7-yl)-5-cyanopicolinamide] yielded an IC50 of 240 nM. In the case of `NC1=N[C@@]2(CCc3ccc(NC(=O)c4ccc(C(F)(F)F)cn4)cc32)C(F)(F)CO1` [Example 18, (R)—N-(2′-Amino-5′,5′-difluoro-2,3,5′,6′-tetrahydrospiro[indene-1,4′-[1,3]oxazine]-6-yl)-5-(trifluoromethyl)picolinamide], the IC50 is reported as 660 nM. For `CC1(C)C[C@@]2(N=C(N)OCC2(F)F)c2cc(NC(=O)c3ccc(Cl)cn3)ccc2O1` [Example 40, (R)—N-(2′-Amino-5′,5′-difluoro-2,2-dimethyl-5′,6′-dihydrospiro[chroman-4,4′-[1,3]oxazine]-6-yl)-5-chloropicolinamide], the IC50 was 2260 nM. Molecule `NC1=N[C@@]2(CC(c3ccccc3)Oc3ccc(NC(=O)c4ccc(C(F)(F)F)cn4)cc32)C(F)(F)COC1` (mixture of isomers) [Example 52, N-((2RS,4R)-3′-Amino-6′,6′-difluoro-2-phenyl-6′,7′-dihydro-2′H-spiro[chroman-4,5′-[1,4]oxazepine]-6-yl)-5-(trifluoromethyl)picolinamide] has an IC50 of 3380 nM. Molecule `N#Cc1ccc(C(=O)Nc2ccc3c(c2)[C@@]2(CCO3)N=C(N)COCC2(F)F)nc1` [Example 49, (R)—N-(3′-Amino-6′,6′-difluoro-6′,7′-dihydro-2′H-spiro[chroman-4,5′-[1,4]oxazepine]-6-yl)-5-cyanopicolinamide] has an IC50 of 830 nM. For `N#Cc1cccc(-c2ccc3c(c2)[C@@]2(CC(c4ccccc4)O3)N=C(N)OCC2(F)F)c1` (some centres unmarked) [Example 27], the IC50 was 260 nM. `NC1=N[C@@]2(CC(c3ccccc3)Oc3ccc(-c4cncnc4)cc32)C(F)(F)COC1` (mixture of isomers) [Example 58, (2RS,4R)-6′,6′-difluoro-2-phenyl-6-(pyrimidin-5-yl)-6′,7′-dihydro-2′H-spiro[chroman-4,5′-[1,4]oxazepin]-3′-amine] gave an IC50 of 1290 nM. `NC1=N[C@@]2(CCCc3ccc(NC(=O)c4ccc(Cl)cn4)cc32)C(F)(F)CO1` [Example 12, (R)—N-(2′-Amino-5′,5′-difluoro-3,4,5′,6′-tetrahydro-2H-spiro[naphthalene-1,4′-[1,3]oxazine]-7-yl)-5-chloropicolinamide] showed an IC50 of 22 nM. Work on `N#Cc1cncc(-c2ccc3c(c2)[C@@]2(CC(c4ccccc4)O3)N=C(N)OCC2(F)F)c1` (mixture of isomers) [Example 24, 5-((2RS,4R)-2′-amino-5′,5′-difluoro-2-phenyl-5′,6′-dihydrospiro[chroman-4,4′-[1,3]oxazine]-6-yl)nicotinonitrile] yielded an IC50 of 98 nM. `NC1=N[C@@]2(CCC(F)(F)c3ccc(-c4cncc(F)c4)cc32)C(F)(F)CO1` [Example 4, (R)-4,4,5′,5′-Tetrafluoro-7-(5-fluoropyridin-3-yl)-3,4,5′,6′-tetrahydro-2H-spiro[naphthalene-1,4′-[1,3]oxazin]-2′-amine] gave an IC50 of 5690 nM. `NC1=N[C@@]2(CC(c3ccccc3)Oc3ccc(NC(=O)c4ccc(Cl)cn4)cc32)C(F)(F)CO1` (single isomer, unassigned) [Example 36, N-((2R or 2S,4R)-2′-Amino-5′,5′-difluoro-2-phenyl-5′,6′-dihydrospiro[chroman-4,4′-[1,3]oxazine]-6-yl)-5-chloropicolinamide] gave an IC50 of 195 nM. For `NC1=N[C@@]2(CCCc3ccc(NC(=O)c4ccc(Cl)cn4)cc32)C(F)(F)COC1` [Example 48, (R)—N-(3′-Amino-6′,6′-difluoro-3,4,6′,7′-tetrahydro-2H,2′H-spiro[naphthalene-1,5′-[1,4]oxazepine]-7-yl)-5-chloropicolinamide], the IC50 was 450 nM. For `NC1=N[C@@]2(CC(c3ccccc3)Oc3ccc(NC(=O)c4ccc(C(F)(F)F)cn4)cc32)C(F)(F)CO1` (single isomer, unassigned) [Example 39, N-((2R or 2S,4R)-2′-Amino-5′,5′-difluoro-2-phenyl-5′,6′-dihydrospiro[chroman-4,4′-[1,3]oxazine]-6-yl)-5-(trifluoromethyl)picolinamide], the IC50 was 280 nM. With `NC1=N[C@@]2(CCC(F)(F)c3ccc(-c4cncc(Cl)c4)cc32)C(F)(F)CO1` [Example 3, (R)-7-(5-Chloropyridin-3-yl)-4,4,5′,5′-tetrafluoro-3,4,5′,6′-tetrahydro-2H-spiro[naphthalene-1,4′-[1,3]oxazin]-2′-amine] the IC50 was 2550 nM. With `N#Cc1cncc(-c2ccc3c(c2)[C@@]2(CCC3(F)F)N=C(N)OCC2(F)F)c1` [Example 5, (R)-5-(2′-Amino-4,4,5′,5′-tetrafluoro-3,4,5′,6′-tetrahydro-2H-spiro[naphthalene-1,4′-[1,3]oxazine]-7-yl)nicotinonitrile] the IC50 was 2770 nM. With `N#Cc1cncc(-c2ccc3c(c2)[C@@]2(CC(c4ccccc4)O3)N=C(N)COCC2(F)F)c1` (mixture of isomers) [Example 59, 5-((2RS,4R)-3′-amino-6′,6′-difluoro-2-phenyl-6′,7′-dihydro-2′H-spiro[chroman-4,5′-[1,4]oxazepine]-6-yl)nicotinonitrile] the IC50 was 340 nM. Work on `NC1=N[C@@]2(CCc3ccc(-c4cncnc4)cc32)C(F)(F)CO1` [Example 7, (R)-5′,5′-Difluoro-6-(pyrimidin-5-yl)-2,3,5′,6′-tetrahydrospiro[indene-1,4′-[1,3]oxazin]-2′-amine] yielded an IC50 of 2370 nM. Molecule `NC1=N[C@@]2(CC(c3ccccc3)Oc3ccc(-c4cncnc4)cc32)C(F)(F)CO1` (mixture of isomers) [Example 25, (2RS,4R)-5′,5′-difluoro-2-phenyl-6-(pyrimidin-5-yl)-5′,6′-dihydrospiro[chroman-4,4′-[1,3]oxazin]-2′-amine] has an IC50 of 1580 nM. With `NC1=N[C@@]2(CC(c3ccccc3)Oc3ccc(-c4cc(Cl)cc(Cl)c4)cc32)C(F)(F)COC1` (mixture of isomers) [Example 57, (2RS,4R)-6-(3,5-Dichlorophenyl)-6′,6′-difluoro-2-phenyl-6′,7′-dihydro-2′H-spiro[chroman-4,5′-[1,4]oxazepin]-3′-amine] the IC50 was 6280 nM. `NC1=N[C@@]2(CC(c3ccccc3)Oc3ccc(-c4cc(Cl)cc(Cl)c4)cc32)C(F)(F)CO1` (mixture of isomers) [Example 26, (2RS,4R)-6-(3,5-dichlorophenyl)-5′,5′-difluoro-2-phenyl-5′,6′-dihydrospiro[chroman-4,4′-[1,3]oxazin]-2′-amine] showed an IC50 of 2870 nM. For `NC1=N[C@@]2(CCOc3ccc(-c4cncc(Cl)c4)cc32)C(F)(F)COC1` [Example 54, (R)-6-(5-Chloropyridin-3-yl)-6′,6′-difluoro-6′,7′-dihydro-2′H-spiro[chroman-4,5′-[1,4]oxazepin]-3′-amine], the IC50 was 1160 nM. For `NC1=N[C@@]2(CC(c3ccccc3)Oc3ccc(-c4cncc(Cl)c4)cc32)C(F)(F)COC1` (mixture of isomers) [Example 56, (2RS,4R)-6-(5-Chloropyridin-3-yl)-6′,6′-difluoro-2-phenyl-6′,7′-dihydro-2′H-spiro[chroman-4,5′-[1,4]oxazepin]-3′-amine], the IC50 was 2100 nM. In the case of `NC1=N[C@@]2(CCOc3ccc(-c4cncnc4)cc32)C(F)(F)CO1` [Example 21, (R)-5′,5′-difluoro-6-(pyrimidin-5-yl)-5′,6′-dihydrospiro[chroman-4,4′-[1,3]oxazin]-2′-amine], the IC50 is reported as 5140 nM.

Source: patent US9079919B2 (HOFFMANN-LA ROCHE INC., priority 2011, dated 2015)
